In patent publication US20210040111A1, “DRUGS TO TREAT OCULAR DISORDERS” (Graybug Vision, Inc., priority 2018, published 2021):
≈ marks a conversion by molar mass, not a printed value. Where two headings read alike, the source gives them in different places.

Assays:
[1] = Determination of prodrug solubility (50 mg/mL target, HPLC of supernatant); type: physicochemical; details: thermodynamic from solid
Procedure: For each test, approximately 5-10 mg was transferred to a 10 mL glass vial. Aqueous or organic solvent was added to each vial to achieve an overall concentration of 50 mg/mL. After vortexing aggressively for 2-3 minutes and sonicating in a bath sonicator for 5 minutes, undissolved drug was spun down at 1200×g for 5 minutes to generate a pellet. The supernatant was collected and filtered through a 0.2 μm nylon syringe filter into HPLC vials for drug content analysis. Drug concentration was determined by comparing against a standard calibration curve.

African green monkeys = details: monkey, in vivo
[2] = DMSO, organic solvent or mixture, read-out: Solubility DMSO
[3] = organic solvent or mixture, DCM (dichloromethane), read-out: Solubility DCM
[4] = water, read-out: Solubility Water

solubility [1, 2] [mg/mL] | solubility [1, 3] [mg/mL] | solubility [1, 4] [mg/mL] | SMILES | Ocular toxicity findings (African green monkeys)
> 100 | > 50 | < 0.1 | CCOC(=O)[C@H](C)OC(=O)[C@H](C)OC(=O)[C@H](C)OC(=O)[C@H](C)OC(=O)c1cc(S(N)(=O)=O)c(Cl)cc1NCc1ccco1 [Compd 1, furosemide-ethyl-PLA (n=4)] | 
> 100 | > 50 | < 0.1 | CCCCNc1cc(C(=O)O[C@@H](C)C(=O)O[C@@H](C)C(=O)O[C@@H](C)C(=O)O[C@@H](C)C(=O)OCC)cc(S(N)(=O)=O)c1Oc1ccccc1 [Compound 2, bumetanide-ethyl-PLA (n=4)] | 
> 100 | > 50 | < 0.1 | CCOC(=O)[C@H](C)OC(=O)[C@H](C)OC(=O)[C@H](C)OC(=O)[C@H](C)OC(=O)[C@H](C)OC(=O)[C@H](C)OC(=O)c1cc(S(N)(=O)=O)c(Cl)cc1NCc1ccco1 [Compound 5, furosemide-ethyl-PLA (n=6)] | 

SMILES | solubility [1, 2] [mg/mL] | solubility [1, 3] [mg/mL] | solubility [1, 4] [mg/mL] | Ocular toxicity findings (African green monkeys)
CCCCNc1cc(C(=O)O)cc(S(N)(=O)=O)c1Oc1ccccc1 [Bumetanide, reference compound] | 25 (≈ 68.6 mM) | 25 (≈ 68.6 mM) | < 0.1 | No ocular toxicity findings
